# Tested on: neurones de cortex
# Assay: Survival of cortex neurons in primary culture
# Format: cell-based, rat
# Conditions: 10⁻⁵M; after 10 days of culture; versus control cells; p < 0,02, Student t (figure 3)
# Description: Les dérivés de l'invention ont été testés sur des neurones du système nerveux central en culture primaire. Les cultures sont préparées à partir de cerveaux d'embryons de rats. Les neurones proviennent de l'une des trois zones cérébrales suivantes: le cortex à partir d'embryons de 14 jours, l'hippocampe et le septum à partir d'embryons de 18 jours. Les cellules sont ensemencées à faible densité (10⁵ cellules/lamelle) sur des lamelles prétraitées avec de la poly-L-lysine. Les cellules sont maintenues dans un milieu de culture chimiquement défini. Les dérivés testés sont ajoutés le premier jour de la mise en culture des cellules à des doses variant de 10⁻⁹ M à 10⁻⁴ M. Le changement de milieu se fait tous les quatre jours avec addition des composés à tester.
# On suit la survie des neurones en culture à l'aide d'un microscope en contraste de phase. De manière générale, les cellules témoins dégénèrent après 11 jours de culture alors que le nombre de cellules survivantes est significativement élevé dans les cultures traitées avec les dérivés de l'invention.
# A titre d'exemple, l'effet du composé A₁, sur la survie des neurones de cortex est représenté sur la figure 3. Ce graphique représente le nombre de neurones survivants après 10 jours de culture.
compound,measurement,value
CC1=C(CCCCCCCCCCCO)C(C)(C)CCC1 [composé A₁],nombre de neurones survivants,significativement augmenté
